According to US20250114361A1, “PYRAZOLOPYRIMIDINE COMPOUND AND PHARMACEUTICAL USE THEREOF” (Japan Tobacco Inc., priority 2022, published 2025):

molecular target: NLRP3 inflammasome (Homo sapiens (Human), UniProt Q96P20); test: NLRP3 inflammasome inhibitory activity: inhibition of IL-1β production in THP1-Null cells (PMA, LPS, Nigericin); format: cell-based; conditions: Nigericin 7.5 μmol/L
Description: The NLRP3 inflammasome inhibitory activity of test compounds were evaluated on the basis of the inhibitory activity of the IL-1β production in THP1-Null cells (Product Number: thp-null, InvivoGen). Cells were maintained for culture in RPMI-1640 media containing 10% (v/v) fetal bovine serum, 25 mmol/L HEPES, 100 U/mL penicillin, 100 μg/mL streptomycin, 100 μg/mL normocin, and 200 μg/mL hygromycin B (set at 37° C., 5% CO2/95% air).
Cells were suspended with media for assay containing 0.5 μmol/L PMA (RPMI-1640 media containing 10% (v/v) fetal bovine serum, 100 U/mL penicillin, and 100 μg/mL streptomycin), and the suspended cells were seeded on Corning (registered trademark) 384-well Flat Clear Bottom Black Polystyrene TC-treated Microplates (25,000 cells/25 μL/well), followed by incubation (set at 37° C., 5% CO2/95% air) overnight. The supernatant of the culture was removed, and thereto was added media for assay (25 μL/well) containing 1 μg/mL Lipopolysaccharides (Product Number: L2654, Sigma-Aldrich (registered trademark)). Then, the culture was further incubated for 3 hours (set at 37° C., 5% CO2/95% air). The supernatant of the culture was removed. Then, a vehicle solution prepared from Opti-MEM (trademark) medium (Product Number: 31985-070, Invitrogen) was added to blank-setting wells and control-setting wells (20 μL/well), followed by incubation for 15 minutes (set at 37° C., 5% CO2/95% air). A solution containing a test compound (20 μL/well) was added to test compound-setting wells. Further, Opti-MEM (trademark) medium containing Nigericin (Product Number: N7143, Sigma-Aldrich (registered trademark)) was added to the control-setting wells and test compound-setting wells (5 μL/well), followed by incubation for 1.5 hours (set at 37° C., 5% CO2/95% air). The final concentration of Nigericin was adjusted to be 7.5 μmol/L. 5 μL/well of Opti-MEM (trademark) medium was added to the blank-setting wells. The supernatant of the culture was cryonically stored (set at −20° C.) until measurement of IL-1β.
The amount of IL-1β in the culture supernatant was quantitated with AlphaLISA (registered trademark) Human IL-1β Detection Kit (Product Number: AL220C, Perkin Elmer). Fluorescence intensity was measured with a microplate reader EnSpier (Model number: 2300-00J, Perkin Elmer) or EnSight (Model number: HH34000000, Perkin Elmer) according to procedure manuals attached thereto. Inhibition rates of the test compound-setting wells were calculated on the basis of 100% for the blank-setting wells and 0% for the control-setting wells. IC50 values (i.e., 50% inhibitory concentrations) of the test compounds were calculated by logistic regression analysis.

Sequence of NLRP3 inflammasome (Q96P20 whole entry): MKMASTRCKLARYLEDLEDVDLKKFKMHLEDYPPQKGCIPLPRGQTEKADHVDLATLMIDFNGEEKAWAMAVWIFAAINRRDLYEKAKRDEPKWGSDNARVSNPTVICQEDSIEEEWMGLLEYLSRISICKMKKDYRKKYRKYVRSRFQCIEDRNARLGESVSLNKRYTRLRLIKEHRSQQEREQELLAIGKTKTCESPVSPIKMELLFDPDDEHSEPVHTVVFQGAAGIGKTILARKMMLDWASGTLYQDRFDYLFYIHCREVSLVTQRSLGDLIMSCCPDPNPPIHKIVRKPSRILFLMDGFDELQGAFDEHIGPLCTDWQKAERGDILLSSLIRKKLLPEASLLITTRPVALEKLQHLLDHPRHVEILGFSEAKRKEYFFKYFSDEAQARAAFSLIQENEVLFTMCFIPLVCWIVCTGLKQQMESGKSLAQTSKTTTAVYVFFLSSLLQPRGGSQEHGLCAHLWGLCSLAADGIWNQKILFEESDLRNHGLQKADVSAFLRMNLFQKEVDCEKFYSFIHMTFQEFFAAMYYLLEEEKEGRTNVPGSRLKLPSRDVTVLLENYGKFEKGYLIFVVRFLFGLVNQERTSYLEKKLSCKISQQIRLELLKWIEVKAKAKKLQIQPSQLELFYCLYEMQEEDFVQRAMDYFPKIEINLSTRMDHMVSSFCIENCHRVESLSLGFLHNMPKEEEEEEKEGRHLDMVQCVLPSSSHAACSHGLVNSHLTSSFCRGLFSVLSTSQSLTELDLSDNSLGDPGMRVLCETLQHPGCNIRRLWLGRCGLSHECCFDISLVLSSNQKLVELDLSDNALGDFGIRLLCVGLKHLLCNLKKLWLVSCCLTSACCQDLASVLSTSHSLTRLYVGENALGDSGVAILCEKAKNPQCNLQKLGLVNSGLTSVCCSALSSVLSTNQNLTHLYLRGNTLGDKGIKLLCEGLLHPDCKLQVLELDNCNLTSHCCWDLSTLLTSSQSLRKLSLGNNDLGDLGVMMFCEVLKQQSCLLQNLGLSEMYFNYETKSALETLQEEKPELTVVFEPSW

Row | SMILES | IC50
1 | Cc1ccccc1-n1cc2c(=O)[nH]c(-c3ccn(C)n3)nc2n1 [Example 1] | 3800 nM
2 | COc1cc(C)c(-n2cc3c(=O)[nH]c(-c4ccn(C)n4)nc3n2)c(C)c1 [Example 2] | 64 nM
3 | COc1cc(C)c(-n2cc3c(=O)[nH]c(-c4cnn(C)c4)nc3n2)c(C)c1 [Example 3] | 110 nM
4 | Cc1cc(C2CC2)cc(C)c1-n1cc2c(=O)[nH]c(-c3ccn(C)n3)nc2n1 [Example 4, 2-(4-cyclopropyl-2,6-dimethylphenyl)-6-(1-methyl-1H-pyrazol-3-yl)-2,5-dihydro-4H-pyrazolo[3,4-d]pyrimidin-4-one] | 15 nM
5 | Cc1cc(C2CC2)cc(C)c1-n1cc2c(=O)[nH]c(-c3ccnn3C)nc2n1 [Example 5] | 23 nM
6 | Cc1cn(C)nc1-c1nc2nn(-c3c(C)cc(C4CC4)cc3C)cc2c(=O)[nH]1 [Example 6] | 50 nM
7 | Cc1cc(OC(F)F)cc(C)c1-n1cc2c(=O)[nH]c(-c3ccn(C)n3)nc2n1 [Example 9] | 49 nM
8 | Cc1cc(Br)cc(C)c1-n1cc2c(=O)[nH]c(-c3cnn(C)c3)nc2n1 [Example 11] | 18 nM
9 | Cc1cc(Br)cc(C)c1-n1cc2c(=O)[nH]c(-c3ccncn3)nc2n1 [Example 12, 2-(4-bromo-2,6-dimethylphenyl)-6-(pyrimidine-4-yl)-2,5-dihydro-4H-pyrazolo[3,4-d]pyrimidin-4-one] | 7.8 nM
10 | Cc1nnc(-c2nc3nn(-c4c(C)cc(Br)cc4C)cc3c(=O)[nH]2)o1 [Example 14] | 390 nM
11 | COCCn1ccc(-c2nc3nn(-c4c(C)cc(Br)cc4C)cc3c(=O)[nH]2)n1 [Example 16] | 47 nM
12 | COCCn1nccc1-c1nc2nn(-c3c(C)cc(Br)cc3C)cc2c(=O)[nH]1 [Example 17] | 220 nM
13 | Cc1cc(Br)cc(C)c1-n1cc2c(=O)[nH]c(-c3cn(C)nn3)nc2n1 [Example 21] | 13 nM
14 | Cc1cc(Br)cc(C)c1-n1cc2c(=O)[nH]c(-c3cccnn3)nc2n1 [Example 23] | 22 nM
15 | Cc1ncc(-c2nc3nn(-c4c(C)cc(Br)cc4C)cc3c(=O)[nH]2)o1 [Example 24] | 53 nM
16 | Cc1cc(-c2nc3nn(-c4c(C)cc(Br)cc4C)cc3c(=O)[nH]2)no1 [Example 25] | 15 nM
17 | Cc1cc(C2CC2)cc(C)c1-n1cc2c(=O)[nH]c(-c3cn(C)nn3)nc2n1 [Example 26] | 12 nM
18 | Cc1cc(OC(F)F)cc(C)c1-n1cc2c(=O)[nH]c(-c3cccnn3)nc2n1 [Example 27] | 62 nM
19 | Cc1cc(C2CC2)cc(C)c1-n1cc2c(=O)[nH]c(-c3ccnnc3)nc2n1 [Example 28] | 11 nM

Row | SMILES | IC50
20 | Cc1cc(C(F)(F)F)cc(C)c1-n1cc2c(=O)[nH]c(-c3ccn(C)n3)nc2n1 [Example 29] | 69 nM
21 | CCn1ccc(-c2nc3nn(-c4c(C)cc(Br)cc4C)cc3c(=O)[nH]2)n1 [Example 30] | 40 nM
22 | Cc1cc(Br)cc(C)c1-n1cc2c(=O)[nH]c(-c3cc(C(F)(F)F)ncn3)nc2n1 [Example 31] | 940 nM
23 | Cc1cc(Br)cc(C)c1-n1cc2c(=O)[nH]c(-c3ccnc(C(F)(F)F)n3)nc2n1 [Example 32] | 77 nM
24 | COc1nccc(-c2nc3nn(-c4c(C)cc(Br)cc4C)cc3c(=O)[nH]2)n1 [Example 34] | 27 nM
25 | Cc1cc(C2CC2)cc(C)c1-n1cc2c(=O)[nH]c(-c3ccncc3F)nc2n1 [Example 36] | 16 nM
26 | Cc1cc(Br)cc(C)c1-n1cc2c(=O)[nH]c(-c3nn(C)cc3F)nc2n1 [Example 37] | 36 nM
27 | Cc1cc(C2CC2)cc(C)c1-n1cc2c(=O)[nH]c(-c3cn(C)cn3)nc2n1 [Example 39, 2-(4-cyclopropyl-2,6-dimethylphenyl)-6-(1-methyl-1H-imidazol-4-yl)-2,5-dihydro-4H-pyrazolo[3,4-d]pyrimidin-4-one] | 23 nM
28 | COCc1cc(C2CC2)cc(C)c1-n1cc2c(=O)[nH]c(-c3ccn(C)n3)nc2n1 [Example 40] | 6.3 nM
29 | Cc1cc(C(C)(F)F)cc(C)c1-n1cc2c(=O)[nH]c(-c3cn(C)cn3)nc2n1 [Example 41, 2-{4-(1,1-difluoroethyl)-2,6-dimethylphenyl}-6-(1-methyl-1H-imidazol-4-yl)-2,5-dihydro-4H-pyrazolo[3,4-d]pyrimidin-4-one] | 40 nM
30 | Cc1cc(C(C)(F)F)cc(C)c1-n1cc2c(=O)[nH]c(-c3ccncn3)nc2n1 [Example 42] | 14 nM
31 | Cc1cc(C2CC2)cc(C)c1-n1cc2c(=O)[nH]c(-c3ccncn3)nc2n1 [Example 43] | 4.3 nM
32 | Cc1cccc(C)c1-n1cc2c(=O)[nH]c(-c3ccn(C)n3)nc2n1 [Example 44] | 880 nM
33 | Cc1cc(C2(F)CC2)cc(C)c1-n1cc2c(=O)[nH]c(-c3ccn(C)n3)nc2n1 [Example 46] | 3.1 nM
34 | Cc1cc(C2CC2)cc(CO)c1-n1cc2c(=O)[nH]c(-c3ccn(C)n3)nc2n1 [Example 49] | 37 nM
35 | Cc1cc(C2CC2)cc(C)c1-n1cc2c(=O)[nH]c(-c3cnn4c3OCCC4)nc2n1 [Example 53] | 240 nM
36 | Cc1cc(C2CC2)cc(C)c1-n1cc2c(=O)[nH]c(-c3cc4n(n3)CCC4)nc2n1 [Example 57] | 9 nM
37 | Cc1cc(C(C)(F)F)cc(C)c1-n1cc2c(=O)[nH]c(-c3cscn3)nc2n1 [Example 58] | 3 nM

More lines, now with the values ahead:

Row | IC50 | SMILES
38 | 33 nM | Cc1cc(C(C)(F)F)cc(C)c1-n1cc2c(=O)[nH]c(-c3ccn(C)n3)nc2n1 [Example 8, 2-{4-(1,1-difluoroethyl)-2,6-dimethylphenyl}-6-(1-methyl-1H-pyrazol-3-yl)-2,5-dihydro-4H-pyrazolo[3,4-d]pyrimidin-4-one]
39 | 20 nM | Cc1cc(Br)cc(C)c1-n1cc2c(=O)[nH]c(-c3ccn(C)n3)nc2n1 [Example 10]
40 | 29 nM | Cc1cc(C2CC2)cc(C)c1-n1cc2c(=O)[nH]c(-c3cc[nH]n3)nc2n1 [Example 13]
41 | 15 nM | Cc1cc(Br)cc(C)c1-n1cc2c(=O)[nH]c(-c3ccnnc3)nc2n1 [Example 15]
42 | 55 nM | Cc1cc(C2CC2)cc(C)c1-n1cc2c(=O)[nH]c(-c3ccn(C(F)F)n3)nc2n1 [Example 18]
43 | 62 nM | Cc1cc(C2CC2)cc(C)c1-n1cc2c(=O)[nH]c(-c3ccn(C4COC4)n3)nc2n1 [Example 19]
44 | 23 nM | COCCn1ccc(-c2nc3nn(-c4c(C)cc(C5CC5)cc4C)cc3c(=O)[nH]2)n1 [Example 20]
45 | 68 nM | Cc1cc(Br)cc(C)c1-n1cc2c(=O)[nH]c(-c3cnccn3)nc2n1 [Example 22]
46 | 22 nM | Cc1cc(C(F)(F)F)cc(C)c1-n1cc2c(=O)[nH]c(-c3ccncc3F)nc2n1 [Example 33]
47 | 24 nM | Cc1cc(Br)cc(C)c1-n1cc2c(=O)[nH]c(-c3ccncc3F)nc2n1 [Example 35]
48 | 15 nM | Cc1cc(C2CC2)cc(C)c1-n1cc2c(=O)[nH]c(-c3nn(C)cc3F)nc2n1 [Example 38]
49 | 6.7 nM | Cc1cc(C2CC2)cc(C)c1-n1cc2c(=O)[nH]c(-c3cnn(C)c3)nc2n1 [Example 47]
50 | 2.5 nM | Cc1cc(I)cc(C)c1-n1cc2c(=O)[nH]c(-c3ccn(C)n3)nc2n1 [Example 48]
51 | 6 nM | Cc1csc(-c2nc3nn(-c4c(C)cc(C5CC5)cc4C)cc3c(=O)[nH]2)n1 [Example 50]
52 | 2 nM | Cc1cc(C2CC2)cc(C)c1-n1cc2c(=O)[nH]c(-c3cscn3)nc2n1 [Example 52]
53 | 9 nM | Cc1cc(C2CC2)cc(C)c1-n1cc2c(=O)[nH]c(-c3cc4n(n3)CCOC4)nc2n1 [Example 54]
54 | 24 nM | Cc1cc(C2CC2)cc(C)c1-n1cc2c(=O)[nH]c(-c3cc4n(n3)CCCO4)nc2n1 [Example 55]
55 | 84 nM | Cn1ccc(-c2nc3nn(-c4cc5c(cc4Cl)OCCC5)cc3c(=O)[nH]2)n1 [Example 56]
56 | 34 nM | Cn1ccc(-c2nc3nn(-c4cc5c(cc4Cl)CCC5)cc3c(=O)[nH]2)n1 [Example 59, 2-(6-chloro-2,3-dihydro-1H-inden-5-yl)-6-(1-methyl-1H-pyrazol-3-yl)-2,5-dihydro-4H-pyrazolo[3,4-d]pyrimidin-4-one]
57 | 390 nM | Cc1cc(C(C)(F)F)cc(C)c1-n1cc2c(=O)[nH]c(-c3nc[nH]n3)nc2n1 [Example 60]

same assay, conditions: at 0.3 μM

Row | inhibition at 0.3 µM | SMILES
58 | 35% | Cc1cc(C2(O)CC2)cc(C)c1-n1cc2c(=O)[nH]c(-c3ccn(C)n3)nc2n1 [Example 51]

same assay, conditions: at 2.4 μM

Row | inhibition at 2.4 µM | SMILES
59 | 34% | Cc1cc(C2(F)CC2(Cl)Cl)cc(C)c1-n1cc2c(=O)[nH]c(-c3ccn(C)n3)nc2n1 (racemic) [Example 45]
